From BindingDB's records for patent US10821115 (Amgen, 2020)
Several values for one entry are separate records, joined by “and”; a condition that tells them apart may be missing. Equal values may be shown once.

What follows are molecules tested against T1, Induced myeloid leukemia cell differentiation protein Mcl-1 [171-327] (Homo sapiens, UniProt Q07820) (assay: Time-Resolved Fluorescence Resonance Energy Transfer (TR-FRET) Assay).
T1 construct: 171-327
T1 sequence (Q07820 171-327): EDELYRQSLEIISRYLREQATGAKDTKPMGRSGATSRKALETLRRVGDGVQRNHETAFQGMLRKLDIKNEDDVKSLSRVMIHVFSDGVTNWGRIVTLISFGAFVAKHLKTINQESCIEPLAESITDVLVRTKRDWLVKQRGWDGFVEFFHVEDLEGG
Protocol: The inhibition of the Mcl-1/Bim interaction was measured using a time-resolved fluorescence resonance energy transfer (TR-FRET) assay. […] A biotinylated peptide derived from human Bim (residues 51-76) was purchased from CPC Scientific (San Jose, Calif.). The TR-FRET assay was conducted in a 384-well white OptiPlate (PerkinElmer, Waltham, Mass.) in a total volume of 40 uL. […] The reaction plates were further incubated overnight and then were read on an Envision multimode reader (PerkinElmer). […] The IC50 values of test compounds were determined from duplicate data by analyzing competition curves using a four-parameter sigmoidal model in GraphPad Prism.

Question: For `C[C@@H]1[C@@H](C)C/C=C/[C@@](O)(c2ccc(F)nc2)[C@@H]2CC[C@H]2CN2C[C@@]3(CCCc4cc(Cl)ccc43)COc3ccc(cc32)C(=O)NS1(=O)=O` (single isomer, unassigned) [US10821115, Example 100420], which IC50 is on record?
Answer: Its IC50 is 0.112 nM.

Question: Which IC50 does the source give for `CO[C@@]1(CN2CCN(CCS(C)(=O)=O)CC2)/C=C/C[C@H](C)[C@@H](C)S(=O)(=O)NC(=O)c2ccc3c(c2)N(C[C@@H]2CC[C@H]21)C[C@@]1(CCCc2cc(Cl)ccc21)CO3` [US10821115, Example 81] here?
Answer: The IC50 was 0.14 nM.

Question: How did the IC50 turn out when `CO[C@]1(CN2CCN(CC(F)(F)F)CC2)/C=C/C[C@H](C)[C@@H](C)S(=O)(=O)NC(=O)c2ccc3c(c2)N(C[C@@H]2CC[C@H]21)C[C@@]1(CCCc2cc(Cl)ccc21)CO3` [US10821115, Example 93] was run?
Answer: Its IC50 is 0.53 nM.

Question: `CCO[C@]1(CN2CCN(C(COC)COC)CC2)/C=C/C[C@H](C)[C@@H](C)S(=O)(=O)NC(=O)c2ccc3c(c2)N(C[C@@H]2CC[C@H]21)C[C@@]1(CCCc2cc(Cl)ccc21)CO3` [US10821115, Example 116] was tested. Which IC50 did it give?
Answer: The IC50 was 0.244 nM.

Question: For `CO[C@@]1(CN2CCN(C3CCOCC3)CC2)/C=C/C[C@H](C)[C@@H](C)S(=O)(=O)NC(=O)c2ccc3c(c2)N(C[C@@H]2CC[C@H]21)C[C@@]1(CCCc2cc(Cl)ccc21)CO3` [US10821115, Example 262], which IC50 is on record?
Answer: The IC50 was 0.093 nM.

Question: With `CO[C@@]1(CN2CCC(N3CCOCC3)CC2)/C=C/C[C@H](C)[C@@H](C)S(=O)(=O)NC(=O)c2ccc3c(c2)N(C[C@@H]2CC[C@H]21)C[C@@]1(CCCc2cc(Cl)ccc21)CO3` [US10821115, Example 263] as the molecule, how does the IC50 read?
Answer: Its IC50 is 0.147 nM.

Question: `CO[C@@]1(CN2CCN([C@H]3CCOC(=O)C3)CC2)/C=C/C[C@H](C)[C@@H](C)S(=O)(=O)NC(=O)c2ccc3c(c2)N(C[C@@H]2CC[C@H]21)C[C@@]1(CCCc2cc(Cl)ccc21)CO3` [US10821115, Example 271] was tested. Which IC50 did it give?
Answer: Its IC50 is 0.031 nM.

Question: `CO[C@@]1(CN2CCN([C@H](CCO)CC(=O)O)CC2)/C=C/C[C@H](C)[C@@H](C)S(=O)(=O)NC(=O)c2ccc3c(c2)N(C[C@@H]2CC[C@H]21)C[C@@]1(CCCc2cc(Cl)ccc21)CO3` [US10821115, Example 278] was tested. Which IC50 did it give?
Answer: Its IC50 is 0.039 nM.

Question: Which IC50 does the source give for `COCC(COC)N1CCN(C[C@]2(OC)/C=C/C[C@H](C)[C@@H](C)S(=O)(=O)NC(=O)c3ccc4c(c3)N(C[C@@H]3CC[C@H]32)C[C@@]2(CCCc3cc(Cl)ccc32)CO4)CC1` [US10821115, Example 287] here?
Answer: The IC50 was 0.137 nM.

Question: How did the IC50 turn out when `COCCN(CCOC)C1CCN(C[C@]2(OC)/C=C/C[C@H](C)[C@@H](C)S(=O)(=O)NC(=O)c3ccc4c(c3)N(C[C@@H]3CC[C@H]32)C[C@@]2(CCCc3cc(Cl)ccc32)CO4)CC1` [US10821115, Example 308] was run?
Answer: The IC50 was 0.111 nM.

Question: `CO[C@@]1(CN2CCN(CC(CO)CO)CC2)/C=C/C[C@H](C)[C@@H](C)S(=O)(=O)NC(=O)c2ccc3c(c2)N(C[C@@H]2CC[C@H]21)C[C@@]1(CCCc2cc(Cl)ccc21)CO3` [US10821115, Example 310] was tested. Which IC50 did it give?
Answer: The IC50 was 0.117 nM.

Question: How did the IC50 turn out when `CCO[C@@]1(CN2CCN(C3(C)COC3)CC2)/C=C/C[C@H](C)[C@@H](C)S(=O)(=O)NC(=O)c2ccc3c(c2)N(C[C@@H]2CC[C@H]21)C[C@@]1(CCCc2cc(Cl)ccc21)CO3` [US10821115, Example 311] was run?
Answer: Its IC50 is 0.324 nM.

Question: Which IC50 does the source give for `CCO[C@@]1(CN2CCC(N(CCOC)CCOC)CC2)/C=C/C[C@H](C)[C@@H](C)S(=O)(=O)NC(=O)c2ccc3c(c2)N(C[C@@H]2CC[C@H]21)C[C@@]1(CCCc2cc(Cl)ccc21)CO3` [US10821115, Example 312] here?
Answer: Its IC50 is 0.576 nM.

Question: For `CO[C@]1(CN2CCN(C3(C)COC3)CC2)/C=C/C[C@H](C)[C@@H](C)S(=O)(=O)NC(=O)c2ccc3c(c2)N(C[C@@H]2CC[C@H]21)C[C@@]1(CCCc2cc(Cl)ccc21)CO3` [US10821115, Example 319], which IC50 is on record?
Answer: The IC50 was 0.081 nM.

Question: `CO[C@@]1(CC(=O)N(C)C)/C=C/C[C@H](C)[C@@H](C)S(=O)(=O)NC(=O)c2ccc3c(c2)N(C[C@@H]2CC[C@H]21)C[C@@]1(CCCc2cc(Cl)ccc21)CO3` [US10821115, Example 100135] was tested. Which IC50 did it give?
Answer: Its IC50 is 0.173 nM.

Question: How did the IC50 turn out when `CO[C@]1(c2cccnc2F)/C=C/C[C@H](C)[C@@H](C)S(=O)(=O)NC(=O)c2ccc3c(c2)N(C[C@@H]2CC[C@H]21)C[C@@]1(CCCc2cc(Cl)ccc21)CO3` [US10821115, Example 100324] was run?
Answer: The IC50 was 0.244 nM and 0.182 nM.

Question: With `CO[C@]1(c2cccc(F)n2)/C=C/C[C@H](C)[C@@H](C)S(=O)(=O)NC(=O)c2ccc3c(c2)N(C[C@@H]2CC[C@H]21)C[C@@]1(CCCc2cc(Cl)ccc21)CO3` [US10821115, Example 100339] as the molecule, how does the IC50 read?
Answer: Its IC50 is 0.779 nM.

Question: `CCN(CC)C(=O)C[C@]1(OC)/C=C/C[C@H](C)[C@@H](C)S(=O)(=O)NC(=O)c2ccc3c(c2)N(C[C@@H]2CC[C@H]21)C[C@@]1(CCCc2cc(Cl)ccc21)CO3` [US10821115, Example 100347] was tested. Which IC50 did it give?
Answer: The IC50 was 0.689 nM.

Question: Which IC50 does the source give for `CO[C@@]1(c2cccnn2)/C=C/C[C@H](C)[C@@H](C)S(=O)(=O)N(C)C(=O)c2ccc3c(c2)N(C[C@@H]2CC[C@H]21)C[C@@]1(CCCc2cc(Cl)ccc21)CO3` [US10821115, Example 100350] here?
Answer: The IC50 was 0.489 nM.

Question: With `CO[C@@]1(CC(=O)N(C)C2CC2)/C=C/C[C@H](C)[C@@H](C)S(=O)(=O)NC(=O)c2ccc3c(c2)N(C[C@@H]2CC[C@H]21)C[C@@]1(CCCc2cc(Cl)ccc21)CO3` [US10821115, Example 100374] as the molecule, how does the IC50 read?
Answer: Its IC50 is 0.289 nM.

Question: Which IC50 does the source give for `C[C@@H]1[C@@H](C)C/C=C/[C@](O)(C#CCCc2ccccn2)[C@@H]2CC[C@H]2CN2C[C@@]3(CCCc4cc(Cl)ccc43)COc3ccc(cc32)C(=O)NS1(=O)=O` [US10821115, Example 100455] here?
Answer: The IC50 was 0.087 nM.

Question: For `CO[C@@]1(CC(=O)NCCO)/C=C/C[C@H](C)[C@@H](C)S(=O)(=O)NC(=O)c2ccc3c(c2)N(C[C@@H]2CC[C@H]21)C[C@@]1(CCCc2cc(Cl)ccc21)CO3` [US10821115, Example 100465], which IC50 is on record?
Answer: The IC50 was 0.121 nM.

Question: For `COC(=O)C(C)(C)NC(=O)C[C@]1(OC)/C=C/C[C@H](C)[C@@H](C)S(=O)(=O)NC(=O)c2ccc3c(c2)N(C[C@@H]2CC[C@H]21)C[C@@]1(CCCc2cc(Cl)ccc21)CO3` [US10821115, Example 100544], which IC50 is on record?
Answer: The IC50 was 0.171 nM.

Question: For `CO[C@@]1(CC(=O)NC(C)(C)C(=O)O)/C=C/C[C@H](C)[C@@H](C)S(=O)(=O)NC(=O)c2ccc3c(c2)N(C[C@@H]2CC[C@H]21)C[C@@]1(CCCc2cc(Cl)ccc21)CO3` [US10821115, Example 100546], which IC50 is on record?
Answer: The IC50 was 0.084 nM.

Question: With `COC(=O)CNC(=O)C[C@]1(OC)/C=C/C[C@H](C)[C@@H](C)S(=O)(=O)NC(=O)c2ccc3c(c2)N(C[C@@H]2CC[C@H]21)C[C@@]1(CCCc2cc(Cl)ccc21)CO3` [US10821115, Example 100550] as the molecule, how does the IC50 read?
Answer: Its IC50 is 0.059 nM.

Question: `CO[C@@]1(CC(=O)NCc2ncco2)/C=C/C[C@H](C)[C@@H](C)S(=O)(=O)NC(=O)c2ccc3c(c2)N(C[C@@H]2CC[C@H]21)C[C@@]1(CCCc2cc(Cl)ccc21)CO3` [US10821115, Example 100577] was tested. Which IC50 did it give?
Answer: Its IC50 is 0.045 nM.

Question: `COC(=O)[C@H](NC(=O)C[C@]1(OC)/C=C/C[C@H](C)[C@@H](C)S(=O)(=O)NC(=O)c2ccc3c(c2)N(C[C@@H]2CC[C@H]21)C[C@@]1(CCCc2cc(Cl)ccc21)CO3)[C@@H](C)O` [US10821115, Example 100581] was tested. Which IC50 did it give?
Answer: The IC50 was 0.363 nM.

Question: `CO[C@@]1(CC(N)=O)/C=C/C[C@H](C)[C@@H](C)S(=O)(=O)NC(=O)c2ccc3c(c2)N(C[C@@H]2CC[C@H]21)C[C@@]1(CCCc2cc(Cl)ccc21)CO3` [US10821115, Example 100589] was tested. Which IC50 did it give?
Answer: The IC50 was 1.83 nM.
